One data set relates to d3 LUHMES cells. The data set can be described thus: Aerugine toxicity in glucose vs galactose medium. Type of data set: cell-based, human. The method, then: Ückert et al. (2023): Identification of the bacterial metabolite aerugine as potential trigger of human dopaminergic […]
A The effect of aerugine on respiratory function was analysed in d3 LUHMES cells. The oxygen consumption rate of the individual technical replicates is shown. The oxygen consumption rate is normalised to the last measurement before injection. The injections of aerugine, control and the subsequent assay tool compounds are indicated (FCCP: 1.5 µM; oligomycin: 1 µM; rotenone + antimycin A: 0.5 µM +0.5 µM). B Several parameters were derived from the oxygen consumption rate. The data is presented as means ± SD of four replicates (obtained from one cell batch). Statistical analysis was performed using a one-way ANOVA with Dunnett‘s multiple comparisons test. * = p < 0.0001. C Delp et al. (2019) determined the dependence of LUHMES cells on glycolysis and their mitochondria for ATP production in two different media conditions. […]
mitochondrial metabolism in producing ATP in the two different media. D Aerugine toxicity was assessed in d3 LUHMES cells cultured in glucose and in galactose medium. Cell viability was assessed by calcein-AM & H-33342 staining and automated fluorescence microscopy. Double positive cells were counted as viable, H-33342 mono-positive cells were counted as dead.

Another data set concerns other neurons. Put plainly: Toxicity for other neurons (abstract summary). The conditions noted are these: Homo sapiens, Neuron, read-out: half-maximal toxicity for other neurons. Type of data set: cell-based.
Data set [1] deals with Neisseria gonorrhoeae MS11. The data set can be described thus: Bacterial growth assay. Type of data set: cell-based. Conditions: 20 μM, log growth phase. The method, then: Neisseria gonorrhoeae MS11 was cultured in PPM medium (15 g/l Proteose Pepton, 1 g/l soluble starch, 5 g/l NaCl, 4 g/l KH2PO4, 1 g/l K2HPO4, pH 7.5) for liquid culture and on GC plates (BD Difco™ GC Medium Base), both supplemented with 1 % vitamin mix (100 g/l glucose, 10 g/l glutamine, 26 g/l L-cysteine, 100 mg/l carboxylase, 250 mg/l NAD, 500 μl/l Fe(NO3)3, 150 mg/l arginine, 3 mg/l thiamine-HCl, 10 mg/l vitamine B12, 13 mg/l p-amino benzoic acid, 1.1 g/l L-cystine, 1 g/l adenine, 500 mg/l uracil, 30 mg/l guanine). Strains were either cultivated at 37 °C and 220 rpm (liquid medium) or at 37 °C and 5 % CO2 (solid medium).
Bacteria were grown as described above on solid medium. Prior to substance exposure, bacteria were pre-cultured in liquid medium for at least 2 h. Optical density was determined and a volume equal to an OD550 of 0.2 for Neisseria gonorrhoeae MS11 (equates a final OD550 of 0.04) and an OD600 of 0.2 for Enterococcus faecalis (equates a final OD600 of 0.04) was inoculated into 5 ml of the respective liquid medium. Compound was added at the indicated amounts. […] Samples were incubated for either 10.5 h, until they reached a stationary phase (three measured values in stationary phase) or until they reached an OD of 2.5. Optical density was determined every 0.5 h at OD550 for Neisseria gonorrhoeae MS11 and at OD600 for Enterococcus faecalis. […]

Data set [2] deals with C. elegans strains BY200 and Punc-25. The data set can be described thus: C. elegans lethality analysis (eight day survival test). Type of data set: in vivo, Caenorhabditis elegans. Conditions: L4 larval stage, 8, 40 and 100 μM, up to 8 days. The procedure:
The strain BY200 Pdat-1::gfp (vtIs1), dat-1::GFP(vtls1) was kindly provided by the Blakely laboratory, Vanderbilt University Medical Center and the strain Punc-25:GFP was obtained from the Caenorhabditis Genetics Center (CGC, University of Minnesota, Minneapolis, MN, USA). The worms were maintained in nematode growth medium (NGM) plates that contain: 3 g/l NaCl, 17 g/l agar, 2.5 g/l peptone, 1 mM CaCl2, 5 mg/l cholesterol, 1 mM MgSO4, 25 mM potassium phosphate buffer (pH 6.0) with 1.25 ml nystatin and 50 mg/l streptomycin sulfate) and Escherichia coli (E. coli) OP50 strain was used as food ([Brenner, 1974]). Synchronization of worms was carried out using extraction solution (0.2% NaOCl, 0.5 M NaOH, in distilled water). The first larval stage (L1) population were obtained by isolating eggs with a 30% sucrose gradient, washed with sterile water, and resuspended in M9 buffer (42 mM Na2HPO4, 22 mM KH2PO4, 8.5 mM NaCl, and 1 mM MgSO4) ([Sulston and Hodgkin, 1998]).
For the lethality analysis, 40 to 60 BY200 and P unc-25 worms at L4 larval stage were exposed to vehicle or aerugine (8, 40 and 100 μM) in OP50-seeded NGM plates from day 0 until day 8. […] Moreover, worms were transferred to fresh plates for the first three days of treatment, which coincide with the egg laying days to avoid mixing of different generations. […]

“Also recorded” adds a separate entry of the source.

Regarding `OCC1CSC(c2ccccc2O)=N1` (stereo not shown) [aerugine, 2-[4-(hydroxymethyl)-4,5-dihydro-1,3-thiazol-2-yl]phenol], the “toxicity in galactose vs glucose medium” value in the data set on d3 LUHMES cells was “no increased aerugine toxicity was observed”. Besides, the EC50 in the data set on other neurons was in the range of 10 to 20 µM. The viability or growth entry in data set [1] is “not affected in viability or growth”. The “general survival of worms” value in data set [2] was “neither triggered death during the first 2 days; also recorded: not affected”.

(Values after PMC10666548, “Identification of the bacterial metabolite aerugine as potential trigger of human dopaminergic neurodegeneration” (Environment international, 2023).)
